Measurements: the NIST ThermoML archive (doi:10.1007/s10765-014-1617-1)
± gives the expanded uncertainty stated by the source.

Experiments:
[1] = refractive index (Na D-line) (dimensionless); conditions: 101.33 kPa, Liquid, Standard Abbe refractometry
[2] = 101.33 kPa, Liquid; for thermal conductivity: Parallel plate method; for mass density: Vibrating tube method

CCCCn1cc[n+](C)c1.N#C[B-](C#N)(C#N)C#N [1-butyl-3-methyl-1H-imidazolium tetracyanoborate]
Conditions | mass density, [2] [kg/m3] | refractive index, [1] | thermal conductivity, [2] [W/m/K]
283.15 K | 1021.17 ± 0.3 | 1.4561 ± 0.0006 | 0.178 ± 0.006
288.15 K | 1017.37 ± 0.3 | – | –
293.15 K | 1013.59 ± 0.3 | 1.4533 ± 0.0006 | 0.1791 ± 0.006
298.15 K | 1009.83 ± 0.3 | – | –
303.15 K | 1006.09 ± 0.29 | 1.45 ± 0.0006 | 0.1756 ± 0.0059
308.15 K | 1002.37 ± 0.29 | – | –
313.15 K | 998.67 ± 0.29 | 1.4473 ± 0.0006 | 0.1737 ± 0.0058
318.15 K | 995 ± 0.29 | – | –
323.15 K | 991.34 ± 0.29 | – | 0.1732 ± 0.0058
328.15 K | 987.71 ± 0.29 | – | –
333.15 K | 984.09 ± 0.29 | – | 0.1693 ± 0.0057
338.15 K | 980.5 ± 0.29 | – | –
343.15 K | 976.92 ± 0.29 | – | 0.1664 ± 0.0056
348.15 K | 973.37 ± 0.29 | – | –
353.15 K | 969.82 ± 0.29 | – | 0.1632 ± 0.0055
358.15 K | 966.3 ± 0.29 | – | –
363.15 K | 962.8 ± 0.28 | – | –

CCCCCCCCCCn1cc[n+](C)c1.N#C[B-](C#N)(C#N)C#N [1-decyl-3-methyl-1H-imidazolium tetracyanoborate]
Conditions | mass density, [2] [kg/m3] | refractive index, [1] | thermal conductivity, [2] [W/m/K]
283.15 K | 972.81 ± 0.29 | 1.4612 ± 0.0006 | 0.1665 ± 0.0056
288.15 K | 969.36 ± 0.29 | – | –
293.15 K | 965.94 ± 0.28 | 1.4584 ± 0.0006 | 0.1673 ± 0.0056
298.15 K | 962.51 ± 0.28 | – | –
303.15 K | 959.09 ± 0.28 | 1.4552 ± 0.0006 | 0.1667 ± 0.0056
308.15 K | 955.68 ± 0.28 | – | –
313.15 K | 952.29 ± 0.28 | 1.4522 ± 0.0006 | 0.1646 ± 0.0055
318.15 K | 948.91 ± 0.28 | – | –
323.15 K | 945.54 ± 0.28 | – | 0.164 ± 0.0055
328.15 K | 942.19 ± 0.28 | – | –
333.15 K | 938.85 ± 0.28 | – | 0.1613 ± 0.0054
338.15 K | 935.53 ± 0.28 | – | –
343.15 K | 932.22 ± 0.28 | – | 0.16 ± 0.0054
348.15 K | 928.94 ± 0.28 | – | –
353.15 K | 925.65 ± 0.28 | – | 0.1586 ± 0.0053
358.15 K | 922.39 ± 0.28 | – | –
363.15 K | 919.14 ± 0.28 | – | –

CCn1cc[n+](C)c1.N#C[C-](C#N)C#N [1-ethyl-3-methyl-1H-imidazolium tricyanomethanide]
Conditions | mass density, [2] [kg/m3] | refractive index, [1] | thermal conductivity, [2] [W/m/K]
283.15 K | 1091.96 ± 1 | 1.516 ± 0.0007 | 0.1966 ± 0.0066
288.15 K | 1088.37 ± 1 | – | –
293.15 K | 1084.8 ± 1 | 1.5131 ± 0.0007 | 0.1958 ± 0.0066
298.15 K | 1081.25 ± 1 | – | –
303.15 K | 1077.71 ± 1 | 1.5101 ± 0.0007 | 0.1955 ± 0.0066
308.15 K | 1074.19 ± 0.99 | – | –
313.15 K | 1070.69 ± 0.98 | 1.5071 ± 0.0007 | 0.1928 ± 0.0065
318.15 K | 1067.21 ± 0.98 | – | –
323.15 K | 1063.74 ± 0.97 | – | 0.1917 ± 0.0064
328.15 K | 1060.29 ± 0.96 | – | –
333.15 K | 1056.86 ± 0.95 | – | 0.1896 ± 0.0064
338.15 K | 1053.44 ± 0.95 | – | –
343.15 K | 1050.04 ± 0.94 | – | 0.1883 ± 0.0063
348.15 K | 1046.66 ± 0.93 | – | –
353.15 K | 1043.28 ± 0.93 | – | 0.1874 ± 0.0063
358.15 K | 1039.93 ± 0.92 | – | –
363.15 K | 1036.58 ± 0.91 | – | –

CCCCCCn1cc[n+](C)c1.N#C[B-](C#N)(C#N)C#N [1-hexyl-3-methylimidazolium tetracyanoborate]
[2]
Conditions | thermal conductivity [W/m/K]
283.15 K | 0.1762 ± 0.0059
293.15 K | 0.1752 ± 0.0059
303.15 K | 0.1741 ± 0.0058
313.15 K | 0.1714 ± 0.0057
323.15 K | 0.1722 ± 0.0058
333.15 K | 0.1697 ± 0.0057
343.15 K | 0.1677 ± 0.0056
353.15 K | 0.1656 ± 0.0056

CCCCCCCCn1cc[n+](C)c1.N#C[B-](C#N)(C#N)C#N [1-methyl-3-octylimidazolium tetracyanoborate]
Conditions | mass density, [2] [kg/m3] | refractive index, [1] | thermal conductivity, [2] [W/m/K]
283.15 K | 985.65 ± 0.29 | 1.4603 ± 0.0006 | 0.1703 ± 0.0057
288.15 K | 982.14 ± 0.29 | – | –
293.15 K | 978.62 ± 0.29 | 1.457 ± 0.0006 | 0.1694 ± 0.0057
298.15 K | 975.1 ± 0.29 | – | –
303.15 K | 971.6 ± 0.29 | 1.4541 ± 0.0006 | 0.1682 ± 0.0056
308.15 K | 968.12 ± 0.29 | – | –
313.15 K | 964.65 ± 0.28 | 1.4509 ± 0.0006 | 0.1644 ± 0.0055
318.15 K | 961.2 ± 0.28 | – | –
323.15 K | 957.76 ± 0.28 | – | 0.1586 ± 0.0053
328.15 K | 954.34 ± 0.28 | – | –
333.15 K | 950.94 ± 0.28 | – | 0.1573 ± 0.0053
338.15 K | 947.55 ± 0.28 | – | –
343.15 K | 944.17 ± 0.28 | – | 0.1543 ± 0.0052
348.15 K | 940.82 ± 0.28 | – | –
353.15 K | 937.45 ± 0.28 | – | 0.1513 ± 0.0051
358.15 K | 934.15 ± 0.28 | – | –
363.15 K | 930.84 ± 0.28 | – | –

CCCCCCCCn1cc[n+](C)c1.N#CC(=C=[N-])C#N [1-methyl-3-octylimidazolium tricyanomethanide]
Conditions | mass density, [2] [kg/m3] | refractive index, [1] | thermal conductivity, [2] [W/m/K]
283.15 K | 1010.18 ± 0.86 | 1.5048 ± 0.0007 | 0.1717 ± 0.0058
288.15 K | 1006.97 ± 0.85 | – | –
293.15 K | 1003.75 ± 0.85 | 1.5021 ± 0.0007 | 0.1689 ± 0.0057
298.15 K | 1000.54 ± 0.84 | – | –
303.15 K | 997.34 ± 0.83 | 1.4993 ± 0.0007 | 0.1675 ± 0.0057
308.15 K | 994.15 ± 0.83 | – | –
313.15 K | 990.97 ± 0.83 | 1.4964 ± 0.0007 | 0.1685 ± 0.0057
318.15 K | 987.8 ± 0.82 | – | –
323.15 K | 984.65 ± 0.82 | – | 0.1678 ± 0.0057
328.15 K | 981.5 ± 0.82 | – | –
333.15 K | 978.37 ± 0.81 | – | 0.1655 ± 0.0056
338.15 K | 975.25 ± 0.81 | – | –
343.15 K | 972.14 ± 0.8 | – | 0.1642 ± 0.0056
348.15 K | 969.05 ± 0.8 | – | –
353.15 K | 965.97 ± 0.8 | – | 0.1639 ± 0.0056
358.15 K | 962.89 ± 0.79 | – | –
363.15 K | 959.82 ± 0.79 | – | –

CCCCCCCCCC[n+]1ccn(C)c1.N#C[C-](C#N)C#N [3-decyl-1-methylimidazolium tricyanomethanide]
Conditions | mass density, [2] [kg/m3] | refractive index, [1] | thermal conductivity, [2] [W/m/K]
283.15 K | 992.5 ± 0.83 | 1.5008 ± 0.0007 | 0.168 ± 0.0057
288.15 K | 989.38 ± 0.82 | – | –
293.15 K | 986.25 ± 0.82 | 1.4981 ± 0.0007 | 0.1694 ± 0.0057
298.15 K | 983.11 ± 0.82 | – | –
303.15 K | 979.98 ± 0.81 | 1.495 ± 0.0007 | 0.1674 ± 0.0057
308.15 K | 976.85 ± 0.81 | – | –
313.15 K | 973.73 ± 0.81 | 1.4918 ± 0.0007 | 0.1676 ± 0.0057
318.15 K | 970.63 ± 0.8 | – | –
323.15 K | 967.53 ± 0.8 | – | 0.1673 ± 0.0057
328.15 K | 964.44 ± 0.8 | – | –
333.15 K | 961.37 ± 0.79 | – | 0.1646 ± 0.0056
338.15 K | 958.31 ± 0.79 | – | –
343.15 K | 955.24 ± 0.79 | – | 0.162 ± 0.0055
348.15 K | 952.2 ± 0.78 | – | –
353.15 K | 949.17 ± 0.78 | – | 0.1593 ± 0.0054
358.15 K | 946.15 ± 0.77 | – | –
363.15 K | 943.13 ± 0.77 | – | –

CCCCCC[n+]1ccn(C)c1.N#C[C-](C#N)C#N [3-hexyl-1-methylimidazolium tricyanomethanide]
Conditions | mass density, [2] [kg/m3] | refractive index, [1] | thermal conductivity, [2] [W/m/K]
283.15 K | 1030.55 ± 0.9 | 1.5084 ± 0.0007 | 0.1817 ± 0.0061
288.15 K | 1027.22 ± 0.89 | – | –
293.15 K | 1023.92 ± 0.89 | 1.5055 ± 0.0007 | 0.1815 ± 0.0061
298.15 K | 1020.62 ± 0.88 | – | –
303.15 K | 1017.35 ± 0.87 | 1.5026 ± 0.0007 | 0.1831 ± 0.0062
308.15 K | 1014.08 ± 0.87 | – | –
313.15 K | 1010.83 ± 0.86 | 1.4994 ± 0.0007 | 0.1817 ± 0.0061
318.15 K | 1007.58 ± 0.85 | – | –
323.15 K | 1004.35 ± 0.85 | – | 0.181 ± 0.0061
328.15 K | 1001.14 ± 0.84 | – | –
333.15 K | 997.93 ± 0.84 | – | 0.1792 ± 0.006
338.15 K | 994.74 ± 0.83 | – | –
343.15 K | 991.57 ± 0.83 | – | 0.1774 ± 0.006
348.15 K | 988.4 ± 0.82 | – | –
353.15 K | 985.24 ± 0.82 | – | 0.1762 ± 0.0059
358.15 K | 982.11 ± 0.82 | – | –
363.15 K | 978.98 ± 0.81 | – | –
